One test deals with T1, NK-1 (Homo sapiens, UniProt P25103).
T1 construct: 30 ul/well of a 2×U373 membrane preparation
The test can be described thus: NK1 radioligand binding assay ([125I]Substance P, U373 membranes). Particulars: U373 cell membranes, 200 pM [125I]Substance P, 1 hour at room temperature. In a few lines: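 U373 cell membranes incubated 1 h at room temperature with [125I]Substance P at its Kd (added as 400 pM 2× solution) in Tris-Cl pH 7.5 with MgCl2, BSA, bacitracin and protease inhibitors. Bound radioligand collected on PEI-treated GF/B filters and counted. IC50 from four-parameter fit of triplicates; L-733,060 defined 100% inhibition.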

Another test deals with hSERT (Homo sapiens, UniProt P31645). The test can be described thus: SERT radioligand binding assay ([125I]RTI-55, HEK-hSERT membranes). The conditions noted are these: HEK-293 hSERT membranes, 260 pM [125I]RTI-55, 1 hour at room temperature. In a few lines: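 Crude membranes from HEK-293 cells expressing hSERT (15 ug/ml, 2× stock) were incubated 1 hour at room temperature with [125I]RTI-55 (520 pM, 2× stock; at Kd) in pH 7.5 Tris, 120 mM NaCl, 5 mM KCl. Bound ligand was collected by GF/B filtration and scintillation counted. IC50 came from four-parameter fit, fluoxetine defining 100% inhibition.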

Read-outs that look alike come from different tables or passages of the source. Some results are limits rather than exact numbers.

T1 sequence (P25103 whole entry): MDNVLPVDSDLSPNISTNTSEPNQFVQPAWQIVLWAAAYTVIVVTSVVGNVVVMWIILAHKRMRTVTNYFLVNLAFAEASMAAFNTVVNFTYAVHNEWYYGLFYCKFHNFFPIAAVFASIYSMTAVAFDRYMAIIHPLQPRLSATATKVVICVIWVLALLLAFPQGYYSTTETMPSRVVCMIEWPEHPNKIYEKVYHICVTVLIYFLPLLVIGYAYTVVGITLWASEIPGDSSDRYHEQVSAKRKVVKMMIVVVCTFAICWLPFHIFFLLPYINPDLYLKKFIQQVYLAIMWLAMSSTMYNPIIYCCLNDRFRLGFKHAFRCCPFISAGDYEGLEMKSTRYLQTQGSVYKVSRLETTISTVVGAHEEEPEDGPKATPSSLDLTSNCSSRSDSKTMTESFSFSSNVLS
hSERT, sequence (P31645 whole entry): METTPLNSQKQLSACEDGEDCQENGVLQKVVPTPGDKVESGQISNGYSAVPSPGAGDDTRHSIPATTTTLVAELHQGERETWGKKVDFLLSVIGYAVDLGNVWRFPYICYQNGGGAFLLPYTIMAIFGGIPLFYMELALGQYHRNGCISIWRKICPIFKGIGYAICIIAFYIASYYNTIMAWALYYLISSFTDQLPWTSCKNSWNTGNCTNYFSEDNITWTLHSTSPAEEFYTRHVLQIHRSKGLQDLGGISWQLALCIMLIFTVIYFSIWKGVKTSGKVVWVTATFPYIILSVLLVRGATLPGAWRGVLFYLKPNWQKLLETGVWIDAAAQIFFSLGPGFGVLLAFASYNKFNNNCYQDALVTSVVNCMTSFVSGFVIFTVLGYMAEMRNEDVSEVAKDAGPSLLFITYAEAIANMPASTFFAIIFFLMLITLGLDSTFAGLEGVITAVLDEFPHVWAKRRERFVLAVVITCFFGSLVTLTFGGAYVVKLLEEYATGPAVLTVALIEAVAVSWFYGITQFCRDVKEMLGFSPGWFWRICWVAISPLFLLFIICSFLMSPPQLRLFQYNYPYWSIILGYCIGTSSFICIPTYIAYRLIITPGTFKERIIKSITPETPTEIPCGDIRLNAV

One may read the IC50 as the point on the concentration scale where inhibition reaches its midpoint. As for `Cn1cc2cc(-c3ccc(C#N)cc3)cc(COCC3(c4ccccc4)CCNCC3)c2n1` [Example 5, 4-(2-Methyl-7-(((4-phenylpiperidin-4-yl)methoxy)methyl)-2H-indazol-5-yl)benzonitrile], the values for the IC50 at NK-1 and on hSERT (read-out: SERT IC50) were over 300 nM and 0.01 to 100 nM, respectively.

Take `Cc1cc(COCC2(c3ccccc3)CCNCC2)c2[nH]ncc2c1` [Example 6, 5-Methyl-7-(((4-phenylpiperidin-4-yl)methoxy)methyl)-1H-indazole]: the IC50 on NK-1 and on hSERT (read-out: SERT IC50) was 0.01 to 100 nM each time.

Regarding `Cc1cc(COCC2(c3ccccc3)CCNCC2)c2c(cnn2C)c1` [Example 7, 1,5-Dimethyl-7-(((4-phenylpiperidin-4-yl)methoxy)methyl)-1H-indazole], the IC50 at NK-1 and at hSERT (read-out: SERT IC50) was 0.01 to 100 nM each time.

Consider `Cc1cc(COCC2(c3ccccc3)CCNCC2)c2nn(C)cc2c1` [Example 8, 2,5-Dimethyl-7-(((4-phenylpiperidin-4-yl)methoxy)methyl)-2H-indazole], for which the IC50 on NK-1 and at hSERT (read-out: SERT IC50) was 0.01 to 100 nM in each case.

Regarding `FC(F)(F)c1cc(COCC2(c3ccccc3)CCNCC2)c2[nH]ncc2c1` [Example 9, 7-(((4-Phenylpiperidin-4-yl)methoxy)methyl)-5-(trifluoromethyl)-1H-indazole], the IC50 at NK-1 and on hSERT (read-out: SERT IC50) was 0.01 to 100 nM throughout.

As to `CN1CCC(COCc2cc(C(F)(F)F)cc3cn[nH]c23)(c2ccccc2)CC1` [Example 10, 7-(((1-Methyl-4-phenylpiperidin-4-yl)methoxy)methyl)-5-(trifluoromethyl)-1H-indazole], the IC50 at NK-1 and at hSERT (read-out: SERT IC50) was 0.01 to 100 nM in each case.

Turning to `Cn1ncc2cc(C(F)(F)F)cc(COCC3(c4ccccc4)CCNCC3)c21` [Example 11, 1-Methyl-7-(((4-phenylpiperidin-4-yl)methoxy)methyl)-5-(trifluoromethyl)-1H-indazole], the IC50 on NK-1 and at hSERT (read-out: SERT IC50) was 0.01 to 100 nM in each case.

Regarding `Cn1cc2cc(C(F)(F)F)cc(COCC3(c4ccccc4)CCNCC3)c2n1` [Example 12, 2-Methyl-7-(((4-phenylpiperidin-4-yl)methoxy)methyl)-5-(trifluoromethyl)-2H-indazole], the IC50 on NK-1 and at hSERT (read-out: SERT IC50) was 0.01 to 100 nM in each case.

Consider `CN1CCC(COCc2cc(C(F)(F)F)cc3cnn(C)c23)(c2ccccc2)CC1` [Example 13, 1-Methyl-7-(((1-methyl-4-phenylpiperidin-4-yl)methoxy)methyl)-5-(trifluoromethyl)-1H-indazole], for which the IC50 on NK-1 and at hSERT (read-out: SERT IC50) was 0.01 to 100 nM in each case.

On to `CN1CCC(COCc2cc(C(F)(F)F)cc3cn(C)nc23)(c2ccccc2)CC1` [Example 14, 2-Methyl-7-(((1-methyl-4-phenylpiperidin-4-yl)methoxy)methyl)-5-(trifluoromethyl)-2H-indazole], for which the IC50 at NK-1 and at hSERT (read-out: SERT IC50) was 0.01 to 100 nM in each case.

In the case of `Fc1ccc(C2(COCc3cc(C(F)(F)F)cc4cn[nH]c34)CCNCC2)cc1` [Example 15, 7-(((4-(4-Fluorophenyl)piperidin-4-yl)methoxy)methyl)-5-(trifluoromethyl)-1H-indazole], the IC50 at NK-1 and at hSERT (read-out: SERT IC50) was 0.01 to 100 nM in each case.

In the case of `CN1CCC(COCc2cc(C(F)(F)F)cc3cn[nH]c23)(c2ccc(F)cc2)CC1` [Example 16, 7-(((4-(4-Fluorophenyl)-1-methylpiperidin-4-yl)methoxy)methyl)-5-(trifluoromethyl)-1H-indazole], the IC50 on NK-1 and at hSERT (read-out: SERT IC50) was 0.01 to 100 nM each time.

For `Cn1ncc2cc(C(F)(F)F)cc(COCC3(c4ccc(F)cc4)CCNCC3)c21` [Example 17, 7-(((4-(4-Fluorophenyl)piperidin-4-yl)methoxy)methyl)-1-methyl-5-(trifluoromethyl)-1H-indazole], the IC50 on NK-1 and on hSERT (read-out: SERT IC50) was 0.01 to 100 nM in each case.

`Cn1cc2cc(C(F)(F)F)cc(COCC3(c4ccc(F)cc4)CCNCC3)c2n1` [Example 18, 7-(((4-(4-Fluorophenyl)piperidin-4-yl)methoxy)methyl)-2-methyl-5-(trifluoromethyl)-2H-indazole]: the IC50 on NK-1 and on hSERT (read-out: SERT IC50) was 0.01 to 100 nM throughout.

On to `CN1CCC(COCc2cc(C(F)(F)F)cc3cnn(C)c23)(c2ccc(F)cc2)CC1` [Example 19, 7-(((4-(4-Fluorophenyl)-1-methylpiperidin-4-yl)methoxy)methyl)-1-methyl-5-(trifluoromethyl)-1H-indazole], for which the IC50 at NK-1 and on hSERT (read-out: SERT IC50) was 0.01 to 100 nM each time.

Regarding `c1ccc(C2(COCc3cccc4cn[nH]c34)CCNCC2)cc1` [Example 34, 7-(((4-Phenylpiperidin-4-yl)methoxy)methyl)-1H-indazole], the IC50 on NK-1 is 100 to 300 nM; at hSERT (read-out: SERT IC50), 0.01 to 100 nM.

With `FC(F)(F)c1cc(COCC2(c3ccccc3)CCNCC2)c2[nH]nc(C3CC3)c2c1` [Example 35, 3-Cyclopropyl-7-(((4-phenylpiperidin-4-yl)methoxy)methyl)-5-(trifluoromethyl)-1H-indazole], the IC50 on NK-1 and on hSERT (read-out: SERT IC50) was 0.01 to 100 nM throughout.

`FC(F)(F)c1cc(COCC2(c3ccccc3)CCNCC2)c2[nH]nc(Br)c2c1` [Example 36, 3-Bromo-7-(((4-phenylpiperidin-4-yl)methoxy)methyl)-5-(trifluoromethyl)-1H-indazole]: the IC50 at NK-1 and at hSERT (read-out: SERT IC50) was 0.01 to 100 nM each time.

For `Cc1n[nH]c2c(COCC3(c4ccccc4)CCNCC3)cc(C(F)(F)F)cc12` [Example 37, 3-Methyl-7-(((4-phenylpiperidin-4-yl)methoxy)methyl)-5-(trifluoromethyl)-1H-indazole], the IC50 at NK-1 and at hSERT (read-out: SERT IC50) was 0.01 to 100 nM in each case.

`c1ccc(C2(COCc3cc(C4CC4)cc4cn[nH]c34)CCNCC2)cc1` [Example 45, 5-Cyclopropyl-7-(((4-phenylpiperidin-4-yl)methoxy)methyl)-1H-indazole]: the concentration for half-maximal inhibition (IC50) on NK-1 and on hSERT (read-out: SERT IC50) was 0.01 to 100 nM each time.

Consider `CC(OCC1(c2ccc(F)cc2)CCN(C)CC1)c1cc(N(C)C)cc2cn[nH]c12` (stereo not drawn) [Example 51, 7-(1-((4-(4-Fluorophenyl)-1-methylpiperidin-4-yl)methoxy)ethyl)-N,N-dimethyl-1H-indazol-5-amine], for which the IC50 on NK-1 and at hSERT (read-out: SERT IC50) was 0.01 to 100 nM each time.

On to `CN1CCC(COCc2cc(-c3ccc(C#N)cc3)cc3cnn(C4CC4)c23)(c2ccccc2)CC1` [Example 65, 4-(1-Cyclopropyl-7-(((1-methyl-4-phenylpiperidin-4-yl)methoxy)methyl)-1H-indazol-5-yl)benzonitrile], for which the IC50 on NK-1 lay in the range of 100 to 300 nM; on hSERT (SERT IC50 (nM)), 0.01 to 100 nM.

As to `CN1CCC(COCc2cc(C(F)(F)F)cc3cc[nH]c23)(c2ccccc2)CC1` [Example 66, 7-(((1-Methyl-4-phenylpiperidin-4-yl)methoxy)methyl)-5-(trifluoromethyl)-1H-indole], the IC50 on NK-1 and at hSERT (read-out: SERT IC50) was 0.01 to 100 nM each time.

Take `CN1CCC(COCc2cc(C(F)(F)F)cc3ccn(C)c23)(c2ccccc2)CC1` [Example 67, 1-Methyl-7-(((1-methyl-4-phenylpiperidin-4-yl)methoxy)methyl)-5-(trifluoromethyl)-1H-indole]: the IC50 at NK-1 and at hSERT (read-out: SERT IC50) was 0.01 to 100 nM throughout.

With `CN1CCC(COCc2cc(C(F)(F)F)cc3cc[nH]c23)(c2ccc(F)cc2)CC1` [Example 68, 7-(((1-Methyl-4-(4-fluorophenyl)piperidin-4-yl)methoxy)methyl)-5-(trifluoromethyl)-1H-indole], the IC50 on NK-1 and at hSERT (read-out: SERT IC50) was 0.01 to 100 nM in each case.

`CN1CCC(COCc2cc(C(F)(F)F)cc3ccn(C)c23)(c2ccc(F)cc2)CC1` [Example 69, 1-Methyl-7-(((1-methyl-4-(4-fluorophenyl)piperidin-4-yl)methoxy)methyl)-5-(trifluoromethyl)-1H-indole]: the IC50 on NK-1 and at hSERT (read-out: SERT IC50) was 0.01 to 100 nM throughout.

For the compound `CN1CCC(COCc2cc(C(F)(F)F)cc3[nH]ccc23)(c2ccccc2)CC1` [Example 76, 4-(((1-Methyl-4-phenylpiperidin-4-yl)methoxy)methyl)-6-(trifluoromethyl)-1H-indole 2,2,2-trifluoroacetate], the IC50 on NK-1 and at hSERT (read-out: SERT IC50) was 0.01 to 100 nM each time.

In the case of `CN1CCC(COCc2cc(C(F)(F)F)cc3c2ccn3C)(c2ccccc2)CC1` [Example 77, 1-Methyl-4-(((1-methyl-4-phenylpiperidin-4-yl)methoxy)methyl)-6-(trifluoromethyl)-1H-indole 2,2,2-trifluoroacetate], the IC50 at NK-1 and on hSERT (read-out: SERT IC50) was 0.01 to 100 nM in each case.

Consider `CN1CCC(COCc2cc(C(F)(F)F)cc3nnn(C)c23)(c2ccc(F)cc2)CC1` [Example 78, 7-(((4-(4-Fluorophenyl)-1-methylpiperidin-4-yl)methoxy)methyl)-1-methyl-5-(trifluoromethyl)-1H-benzo[d][1,2,3]triazole], for which the IC50 on NK-1 was in the range of 100 to 300 nM; on hSERT (read-out: SERT IC50) it was 0.01 to 100 nM.

Turning to `CN1CCC(COCc2cc(C(F)(F)F)cc3nn(C)nc23)(c2ccc(F)cc2)CC1` [Example 79, 4-(((4-(4-Fluorophenyl)-1-methylpiperidin-4-yl)methoxy)methyl)-2-methyl-6-(trifluoromethyl)-2H-benzo[d][1,2,3]triazole], the IC50 on NK-1 and at hSERT (read-out: SERT IC50) was 0.01 to 100 nM in each case.

Source of the values: US8026257B2 (Bristol-Myers Squibb Company, priority 2007, dated 2011).
